Laboratory results as given in patent publication US10131652B2, “Pyrimidinyloxy benzene derivatives as herbicides” (E. I. DU PONT DE NEMOURS AND COMPANY, priority 2014, dated 2018).

Key:
Assay type in all cases: in vivo
[1] = tested on: Italian ryegrass (Lolium multiflorum); assay: Test B pre-/postemergence plant response
Method in brief: (§1)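 Evaluation is visual, about 10 days after application, rating injury from 0 (none) to 100 (complete control) relative to untreated controls. Application was a preemergence soil spray on seeded pots or a postemergence spray on one- to two-leaf plants.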

[2] = tested on: barnyardgrass (Echinochloa crus-galli); assay: Test B pre-/postemergence plant response
Method in brief: as §1

corn (Zea mays) = assay: Test B pre-/postemergence plant response
Method in brief: as §1

[3] = tested on: giant foxtail (Setaria faberii); assay: Test B pre-/postemergence plant response
Method in brief: as §1

kochia (Kochia scoparia) = assay: Test B pre-/postemergence plant response
Method in brief: as §1

[4] = tested on: pigweed (Amaranthus retroflexus); assay: Test B pre-/postemergence plant response
Method in brief: as §1

[5] = tested on: ragweed (common ragweed, Ambrosia elatior); assay: Test B pre-/postemergence plant response
Method in brief: as §1

[6] = tested on: wheat (Triticum aestivum); assay: Test B pre-/postemergence plant response
Method in brief: as §1

[7] = tested on: blackgrass (Alopecurus myosuroides); assay: Test B postemergence plant response
Method in brief: (§2)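 Values are visual control ratings (0 to 100) recorded approximately 10 days after postemergence application to greenhouse-grown plants of 2 to 10 cm, one- to two-leaf stage, each judged against untreated controls.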

[8] = tested on: galium (catchweed bedstraw, Galium aparine); assay: Test B postemergence plant response
Method in brief: as §2

[9] = tested on: barnyardgrass (Echinochloa crus-galli); assay: Test C flooded paddy test plant response; settings: Flood, 250 g ai/ha; scale of 0 to 100 where 0 is no effect and 100 is complete control; 13 to 15 days
Method in brief: (§3)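 Greenhouse paddy assay, 13–15 days. Treatment into 3 cm floodwater over 2-leaf plants; visual 0–100 rating against controls.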

[10] = tested on: ducksalad (Heteranthera limosa); assay: Test C flooded paddy test plant response; settings: Flood, 250 g ai/ha; scale of 0 to 100 where 0 is no effect and 100 is complete control; 13 to 15 days
Method in brief: as §3

rice (Oryza sativa) = assay: Test C flooded paddy test plant response; settings: Flood, 250 g ai/ha; scale of 0 to 100 where 0 is no effect and 100 is complete control; 13 to 15 days
Method in brief: as §3

[11] = tested on: small-flower umbrella sedge (Cyperus difformis); assay: Test C flooded paddy test plant response; settings: Flood, 250 g ai/ha; scale of 0 to 100 where 0 is no effect and 100 is complete control; 13 to 15 days
Method in brief: as §3

[12] = 125 g ai/ha, postemergence, 0 to 100 scale, 0 no effect, 100 complete control
[13] = Postemergence, 500 g ai/ha, 0 to 100 scale (0 no effect, 100 complete control)
[14] = Preemergence, 125 g ai/ha, 0 to 100 scale (0 no effect, 100 complete control)
[15] = Preemergence, 500 g ai/ha, 0 to 100 scale where 0 is no effect and 100 is complete control

Structure (SMILES)	Plant response rating, Ryegrass, Italian [1, 12]	Plant response rating, Ryegrass, Italian [1, 13]	Ryegrass, Italian plant response rating [1, 14]	Plant response rating, Ryegrass, Italian [1, 15]	Plant response rating, Barnyardgrass [2, 12]	Plant response rating, Barnyardgrass [2, 13]	Barnyardgrass plant response rating [2, 14]	Plant response rating, Barnyardgrass [2, 15]	Plant response rating, Corn (corn (Zea mays); [12])	Plant response rating, Corn (corn (Zea mays); [13])	Plant response rating, Foxtail, Giant [3, 12]	Plant response rating, Foxtail, Giant [3, 13]	Foxtail, Giant plant response rating [3, 14]	Plant response rating, Foxtail, Giant [3, 15]	Plant response rating, Kochia (kochia (Kochia scoparia); [12])	Plant response rating, Kochia (kochia (Kochia scoparia); [13])	Kochia plant response rating (kochia (Kochia scoparia); [14])	Plant response rating, Kochia (kochia (Kochia scoparia); [15])	Plant response rating, Pigweed [4, 12]	Plant response rating, Pigweed [4, 13]	other results
Clc1cnc(Oc2ccccc2-c2ccc(Br)s2)nc1 [Compound 181]	0	0	0	0	10	20	0	10	10	10	0	20	0	40	30	50	0	0	50	90	Pigweed plant response rating [4, 14]: 10; Plant response rating, Pigweed [4, 15]: 80; Plant response rating, Ragweed [5, 12]: 10; Plant response rating, Ragweed [5, 13]: 10; Ragweed plant response rating [5, 14]: 0; Plant response rating, Ragweed [5, 15]: 0; Plant response rating, Wheat [6, 12]: 0; Plant response rating, Wheat [6, 13]: 0; Plant response rating, Blackgrass [7, 12]: 0; Plant response rating, Blackgrass [7, 13]: 10; Plant response rating, Galium [8, 12]: 10; Plant response rating, Galium [8, 13]: 50; Barnyardgrass plant response rating [9]: 0; Ducksalad plant response rating [10]: 0; Rice plant response rating (rice (Oryza sativa)): 0; Sedge, Umbrella plant response rating [11]: 0
Clc1cnc(Oc2ccccc2-c2cccs2)nc1 [Compound 182]	0	0	0	10	0	10	0	20	10	20	0	50	0	40	30	80	0	30	40	80	Pigweed plant response rating [4, 14]: 0; Plant response rating, Pigweed [4, 15]: 40; Plant response rating, Ragweed [5, 12]: 0; Plant response rating, Ragweed [5, 13]: 10; Ragweed plant response rating [5, 14]: 0; Plant response rating, Ragweed [5, 15]: 10; Plant response rating, Wheat [6, 12]: 0; Plant response rating, Wheat [6, 13]: 0; Plant response rating, Blackgrass [7, 12]: 0; Plant response rating, Blackgrass [7, 13]: 10; Plant response rating, Galium [8, 12]: 30; Plant response rating, Galium [8, 13]: 50; Barnyardgrass plant response rating [9]: 0; Ducksalad plant response rating [10]: 0; Rice plant response rating (rice (Oryza sativa)): 0; Sedge, Umbrella plant response rating [11]: 0
FC(F)c1cc(-c2ccccc2Oc2ncc(Cl)cn2)ncn1 [Compound 184]	0	20	0	10	0	50	10	90	10	20	10	70	20	90	70	100	20	100	90	100	Pigweed plant response rating [4, 14]: 80; Plant response rating, Pigweed [4, 15]: 100; Plant response rating, Ragweed [5, 12]: 20; Plant response rating, Ragweed [5, 13]: 40; Ragweed plant response rating [5, 14]: 0; Plant response rating, Ragweed [5, 15]: 50; Plant response rating, Wheat [6, 12]: 0; Plant response rating, Wheat [6, 13]: 10; Plant response rating, Blackgrass [7, 12]: 10; Plant response rating, Blackgrass [7, 13]: 60; Plant response rating, Galium [8, 12]: 70; Plant response rating, Galium [8, 13]: 100; Barnyardgrass plant response rating [9]: 0; Ducksalad plant response rating [10]: 0; Rice plant response rating (rice (Oryza sativa)): 0; Sedge, Umbrella plant response rating [11]: 0
